SMILES strings stand for the structures. Values joined by “and” are separate entries in the source; they are usually repeats but may differ in a detail not shown here. Equal entries are not always repeated.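 In this assay, cells in 96-well plates receive the compound at five concentrations for 48 hours. Endpoints are linearly interpolated between the surrounding concentrations. At the GI50, growth is halved. The concentration for full growth arrest is given as TGI.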

TGI and GI50 data for 12 compounds are collected here from PubChem BioAssay (NCI).

Experiment in all cases: NCI-60 cell line screen, 48 h
The test system of assay [1] is PC-3 prostate.
Assay [2] concerns HCC-2998 colon.
The subject of assay [3] is M14 melanoma.
Assay [4] has as its system CAKI-1 renal.
In assay [5] the test system is OVCAR-8 ovarian.
Assay [6] relates to KM12 colon.
Assay [7] deals with BT-549 breast.
For assay [8], the system named is ACHN renal.
In assay [9] the test system is HCT-116 colon.
Assay [10] deals with HCT-15 colon.

With `CC1=C2C(=CO[C@H](C)[C@H]2C)C(=O)C(C(=O)O)=C1O`, the TGI was more than 85.3 µM in [1]; 42.6 µM and 57.9 µM in [2]; 60.9 µM in assay [3]; 54.2 µM and 77.8 µM in assay [4]; 43.3 µM and 35.2 µM in [5]; 87.5 µM and 48.8 µM in assay [6]. For the same compound, the TGI in [7] was 37.1 µM; in assay [8], 46.7 µM; in assay [9] it was 82.2 µM and 78.5 µM; in [10] it was 60.3 µM and 40.8 µM. Further, the GI50 in [2] was 23.7 µM; in assay [4] it was 16.6 µM; in assay [5], 19.8 µM; in assay [6], 19.2 µM; in assay [10] it was 19.6 µM.
Turning to `O=C(c1cccs1)N1CCN(C(=O)c2cccs2)C1=S`, the TGI was determined as 15.6 µM in [1]; 22 µM in [2]; 19 µM in [3]; 15.3 µM in [4]; 21.4 µM in [5]; 12.4 µM in assay [6]. For the same compound, the TGI in [7] stood at 14.9 µM; in assay [8], 20.5 µM; in assay [9], 21.7 µM; in assay [10], 17.7 µM.
For `O=C(N/N=C/C=C/c1ccccc1)c1ccccc1Nc1ccccc1C(=O)N/N=C/C=C/c1ccccc1`, the TGI in [1], in assay [2], in assay [3], in assay [4], in assay [5] and in assay [6] was more than 100 µM throughout. Besides, the TGI in assay [7], in assay [8], in assay [9] and in assay [10] was more than 100 µM each time.
`Cc1ccc(S(=O)CC(CF)OCn2cc(C)c(=O)[nH]c2=O)cc1` (stereo not given): the TGI in assay [1], in assay [2], in [3], in assay [4], in assay [5] and in [6] was more than 100 µM in each case. The TGI in [7], in assay [8], in assay [9] and in assay [10] was more than 100 µM each time.
Regarding `CN1CC2=C(NC(=S)NC2c2ccccc2)/C(=C/c2ccccc2)C1` (stereo not given), the TGI in [1] is more than 100 µM; in assay [2], more than 100 µM; in assay [3] it was 56.6 µM; in [4] it was more than 100 µM; in assay [5], more than 10 µM; in assay [6], 68 µM. The TGI is more than 100 µM in assay [7], more than 100 µM in [8], 63.3 µM in assay [9] and more than 100 µM in [10].
Regarding `CCOC(=O)Nn1c(CC#N)nnc1Cc1ccccc1`, the TGI in [1], in [2], in assay [3], in assay [4], in assay [5] and in assay [6] was more than 100 µM each time. In addition, the TGI in [7], in assay [8], in [9] and in assay [10] was more than 100 µM throughout.
For the compound `CC(Oc1ccccc1Cl)C(=O)NN1C(=O)CSC1c1ccccc1` (stereo not given), the TGI in assay [1], in [2], in assay [3], in assay [4], in assay [5] and in assay [6] was more than 100 µM throughout. Besides, the TGI in [7], in [8], in [9] and in assay [10] was more than 100 µM throughout.
`CN1C(=O)C(O)C[C@@H]1c1ccccc1` (stereo not given in full): the TGI in assay [1], in assay [2], in [3], in [4], in [5] and in assay [6] was more than 100 µM throughout. The TGI in assay [7], in assay [8], in assay [9] and in [10] was more than 100 µM in each case.
Regarding `CC(C)(C)n1c(=O)[nH]c(=O)n1C(C)(C)C`, the TGI in [1], in [2], in assay [3], in [4], in assay [5] and in assay [6] was more than 100 µM throughout. In addition, the TGI in assay [7], in assay [8], in assay [9] and in [10] was more than 100 µM throughout.
For `CC1(C)CC(=O)C2(CC(CSc3ccccc3)C(CS(=O)(=O)c3ccccc3)C2)C(=O)C1` (stereo not given), the TGI in [1], in [2], in assay [3], in [4], in [5] and in assay [6] was more than 100 µM in each case. Also, the TGI in [7], in [8], in assay [9] and in assay [10] was more than 100 µM in each case.
Take `Cc1ccc(S(=O)(=O)Nn2c(O)c(C#N)c(-c3ccc(Cl)cc3)c(C#N)c2=O)cc1`: the TGI in assay [1], in [2], in assay [3], in assay [4], in assay [5] and in assay [6] was more than 100 µM in each case. The TGI in [7], in assay [8], in [9] and in assay [10] was more than 100 µM each time.
Consider `Cc1cc(OC(=O)NCn2cc(-c3ccccc3)nn2)ccc1Cl`, for which the TGI in assay [1] is more than 100 µM; in assay [2], 39.2 µM; in assay [3] it was more than 100 µM; in [4] it was more than 100 µM; in [5], more than 100 µM; in assay [6], more than 100 µM. The TGI in assay [7], in [8], in assay [9] and in [10] was more than 100 µM throughout.
